In ChEMBL document CHEMBL1201862, “PubChem BioAssay data set” (2004):
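Five concentrations, 48 hours, 96-well plates. Abbreviation: GI50, concentration required for 50% inhibition of growth.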 The source made the active and inactive calls. Cut-off read from the data, not from the text of the source: active = GI50 up to about 1.1 µM and inactive = higher.

Experiments:
Test in all cases: growth of human tumour cells (NCI), 48 h
RXF 393 = tested on: RXF 393
U-251 = tested on: U-251
NCI-H23 = tested on: NCI-H23
NCI-H460 = tested on: NCI-H460
HOP-92 = tested on: HOP-92
M14 = tested on: M14
CCRF-CEM = tested on: CCRF-CEM
SF-295 = tested on: SF-295
COLO 205 = tested on: COLO 205
SNB-78 = tested on: SNB-78
EKVX = tested on: EKVX
SK-OV-3 = tested on: SK-OV-3
HL-60 = tested on: HL-60
OVCAR-8 = tested on: OVCAR-8
HCT-15 = tested on: HCT-15
HOP-62 = tested on: HOP-62
SF-539 = tested on: SF-539

| SMILES | GI50 (RXF 393) | GI50 (U-251) | GI50 (NCI-H23) | GI50 (NCI-H460) | GI50 (HOP-92) | GI50 (M14) | GI50 (CCRF-CEM) | GI50 (SF-295) | GI50 (COLO 205) | GI50 (SNB-78) | GI50 (EKVX) | GI50 (SK-OV-3) | GI50 (HL-60) | GI50 (OVCAR-8) | GI50 (HCT-15) | GI50 (HOP-62) | GI50 (SF-539) |
| --- | --- | --- | --- | --- | --- | --- | --- | --- | --- | --- | --- | --- | --- | --- | --- | --- | --- |
| [O-][n+]1c2cc3c(cc2[n+]([O-])c2c(O)cccc21)CN(CCN1CCOCC1)C3 | 16.1 µM (inactive) | 12.1 µM (inactive) | 30.7 µM (inactive) | 7.18 µM (inactive) | 5.7 µM (inactive) | 49.5 µM (inactive) | 6.12 µM (inactive) | 13.1 µM (inactive) | 14.5 µM (inactive) | 32.4 µM (inactive) | 14.9 µM (inactive) | 17.1 µM (inactive) | 5.7 µM (inactive) | 12.1 µM (inactive) | 27.4 µM |  |  |
| O=C(/C=C1\Nc2ccccc2C(=O)N1c1ccccc1Cl)c1ccccc1 | > 100 µM (inactive) | > 100 µM (inactive) | > 100 µM (inactive) | > 100 µM (inactive) | 17.9 µM (inactive) | > 100 µM (inactive) | > 100 µM (inactive) | > 100 µM (inactive) | > 100 µM (inactive) | > 100 µM (inactive) | > 100 µM (inactive) | > 100 µM (inactive) | 47 µM (inactive) | > 100 µM (inactive) | > 100 µM | > 100 µM (inactive) | > 100 µM (inactive) |
| COc1cccc(NC(=O)C(C)(C)C)c1C=O |  | 36.6 µM (inactive) | 48.3 µM (inactive) | > 100 µM (inactive) | 54 µM (inactive) | 70.8 µM (inactive) | 32.1 µM (inactive) | 67.6 µM (inactive) | > 100 µM (inactive) | 51.2 µM (inactive) | 35.3 µM (inactive) | 82.8 µM (inactive) | 26.7 µM (inactive) | 57.9 µM (inactive) | 35.4 µM | > 100 µM (inactive) | 68.4 µM (inactive) |
| COC(=O)C12C3C4C1C1C2C3C41C(=O)N(C(C)C)C(C)C (stereo not drawn) |  | > 100 µM (inactive) | > 100 µM (inactive) | > 100 µM (inactive) | > 100 µM (inactive) | > 100 µM (inactive) | > 100 µM (inactive) | > 100 µM (inactive) | > 100 µM (inactive) | > 100 µM (inactive) | > 100 µM (inactive) | > 100 µM (inactive) | > 100 µM (inactive) | > 100 µM (inactive) | > 100 µM | > 100 µM (inactive) | > 100 µM (inactive) |
| CCOC(=O)C1C=C2O[C@@H]3OC4(CCCCC4)O[C@@H]3C2C2C(=O)CCC(=O)[C@@]12C(=O)OC (stereo partly drawn) |  | > 100 µM (inactive) | > 100 µM (inactive) | > 100 µM (inactive) | > 100 µM (inactive) | > 100 µM (inactive) | > 100 µM (inactive) | > 100 µM (inactive) | > 100 µM (inactive) | > 100 µM (inactive) | > 100 µM (inactive) | > 100 µM (inactive) | > 100 µM (inactive) | > 100 µM (inactive) | > 100 µM | > 100 µM (inactive) |  |
| C#CCNC(=O)NCCCCC(NC(=O)OCc1ccccc1)C(=O)OCc1ccccc1 (stereo not drawn) | > 100 µM (inactive) | > 64.6 µM (inactive) | > 64.3 µM (inactive) | 52.2 µM (inactive) | > 72.4 µM (inactive) | 37.6 µM (inactive) | 18.5 µM (inactive) | > 100 µM (inactive) | 17.7 µM (inactive) | > 80.9 µM (inactive) | > 100 µM (inactive) | > 100 µM (inactive) | 18 µM (inactive) | 48.4 µM (inactive) | > 86.5 µM |  | > 60.5 µM (inactive) |
| O=C(Nc1cc(Cl)c(Cl)cc1Cl)C(=O)C1C(=O)NC(=S)NC1=O | > 100 µM (inactive) | > 100 µM (inactive) | > 100 µM (inactive) | > 100 µM (inactive) | > 100 µM (inactive) | > 100 µM (inactive) | > 100 µM (inactive) | > 100 µM (inactive) | > 100 µM (inactive) | > 100 µM (inactive) | > 100 µM (inactive) | > 100 µM (inactive) | > 100 µM (inactive) | > 100 µM (inactive) | > 100 µM | > 100 µM (inactive) | > 100 µM (inactive) |
| O=C(c1ccccc1)C(c1ccccc1)C1(O)C(=O)Nc2ccc([N+](=O)[O-])cc21 (stereo not drawn) | > 100 µM (inactive) | > 100 µM (inactive) | 92 µM (inactive) | > 100 µM (inactive) | 31.8 µM (inactive) | > 100 µM (inactive) | 41.9 µM (inactive) |  | 26.2 µM (inactive) | > 100 µM (inactive) | > 100 µM (inactive) | 19.4 µM (inactive) | 42.9 µM (inactive) | > 100 µM (inactive) | > 100 µM | > 100 µM (inactive) | > 100 µM (inactive) |
| COC(OC)C(C)CC(=O)N(C)C (stereo not drawn) |  | > 100 µM (inactive) |  | > 100 µM (inactive) | > 100 µM (inactive) | > 100 µM (inactive) | > 100 µM (inactive) | > 100 µM (inactive) | > 100 µM (inactive) | > 100 µM (inactive) | > 100 µM (inactive) | > 100 µM (inactive) | > 100 µM (inactive) | > 100 µM (inactive) | > 100 µM | > 100 µM (inactive) | > 100 µM (inactive) |
